Bounds are passed on as bounds.

In the assay the target is CDK2/Cyclin E1 (Homo sapiens (Human), UniProt P24941). Description: CDK2/Cyclin E1 HTRF enzyme activity assay (Example A). Type of assay: biochemical. As to conditions: 1 mM ATP. As for the experimental part: Assays were conducted in white 384-well polystyrene plates in a final reaction volume of 8 μL. […] HTRF signals were read after 1 hour at room temperature on a PHERAstar FS plate reader (BMG Labtech). Data was analyzed with IDBS XLFit and GraphPad Prism 5.0 software using a three or four parameter dose response curve to determine IC50 for each compound.
In general terms: In TR-FRET formats the signal depends on donor and acceptor labels being close together.
By IC50 is commonly meant the concentration at which inhibition is half-maximal. `CS(=O)(=O)N1CCC(Nc2ncc(C(F)(F)F)c(-c3cn(C(CC#N)C4CC4)cn3)n2)CC1` (centres unmarked) [Example 25, 3-Cyclopropyl-3-(4-(2-((1-(methylsulfonyl)piperidin-4-yl)amino)-5-(trifluoromethyl)pyrimidin-4-yl)-1H-imidazol-1-yl)propanenitrile] yielded an IC50 of at most 50 nM. The result for `CS(=O)(=O)N1CCC(Nc2ncc(C(F)(F)F)c(-c3cn(-c4ccc(N5CCC(N6CCCC6)CC5)cc4Cl)cn3)n2)CC1` [Example 146, 4-(1-(2-Chloro-4-(4-(pyrrolidin-1-yl)piperidin-1-yl)-phenyl)-1H-imidazol-4-yl)-N-(1-(methylsulfonyl)-piperidin-4-yl)-5-(trifluoromethyl)-pyrimidin-2-amine] reads at most 50 nM; that for `CN(C)c1nccc(-n2cnc(-c3nc(NC4CCN(S(C)(=O)=O)CC4)ncc3C(F)(F)F)c2)c1Cl` [Example 321, 4-(1-(3-Chloro-2-(dimethylamino)pyridin-4-yl)-1H-imidazol-4-yl)-N-(1-(methylsulfonyl)piperidin-4-yl)-5-(trifluoromethyl)pyrimidin-2-amine], at most 50 nM; that for `COc1ccc(-n2cnc(-c3nc(NC4CCN(S(C)(=O)=O)CC4)ncc3C(F)(F)F)c2)c(C#N)n1` [Example 39, 6-Methoxy-3-(4-(2-((1-(methylsulfonyl)piperidin-4-yl)amino)-5-(trifluoromethyl)pyrimidin-4-yl)-1H-imidazol-1-yl)picolinonitrile], at most 50 nM. The figure for `C[C@@H]1CN(S(C)(=O)=O)CC[C@@H]1Nc1ncc(C(F)(F)F)c(-c2cn(-c3ccc(CN4CCC4)cc3Cl)cn2)n1` [Example 219, 4-(1-(4-(Azetidin-1-ylmethyl)-2-chloro-phenyl)-1H-imidazol-4-yl)-N-((3R,4S)-3-methyl-1-(methyl-sulfonyl)piperidin-4-yl)-5-(trifluoro-methyl)pyrimidin-2-amine] is at most 50 nM; for `CNCc1ccc(-n2cnc(-c3nc(NC4CCN(S(C)(=O)=O)CC4)ncc3C(F)(F)F)c2)c(F)c1` [Example 266, 4-(1-(2-Fluoro-4-((methylamino)methyl)phenyl)-1H-imidazol-4-yl)-N-(1-(methylsulfonyl)piperidin-4-yl)-5-(trifluoromethyl)pyrimidin-2-amine] it is at most 50 nM; for `CS(=O)(=O)N1CCC(Nc2ncc(C(F)(F)F)c(-c3cn(-c4cccc(CCNC5CC5)c4Cl)cn3)n2)CC1` [Example 371, 4-(1-(2-Chloro-3-(2-(cyclopropylamino)eth-yl)phenyl)-1H-imidazol-4-yl)-N-(1-(methylsulfonyl)piperidin-4-yl)-5-(trifluoromethyl)pyrimi-din-2-amine] it is at most 50 nM. For `CS(=O)(=O)N1CCC(Nc2ncc(C(F)(F)F)c(-c3cn(-c4ccc(CN5C6CCC5COC6)cc4Cl)cn3)n2)CC1` [Example 215, 4-(1-(4-((3-Oxa-8-azabicyclo[3.2.1]-octan-8-yl)methyl)-2-chlorophenyl)-1H-imidazol-4-yl)-N-(1-(methylsulfonyl)-piperidin-4-yl)-5-(trifluoromethyl)-pyrimidin-2-amine], the IC50 is at most 50 nM.

`Cc1nc(-c2nc(NC3CCN(S(C)(=O)=O)CC3)ncc2C#N)cn1-c1ccc(C#N)cc1F` [Example 290, 4-(1-(4-Cyano-2-fluorophenyl)-2-methyl-1H-imidazol-4-yl)-2-((1-(methylsulfonyl)piperidin-4-yl)amino)pyrimidine-5-carbonitrile] registered an IC50 of at most 50 nM. The result for `Cc1nc(-c2nc(NC3CCN(S(C)(=O)=O)CC3)ncc2C(F)(F)F)cn1-c1ccc(OC[C@H]2CCCN2C)cc1F` [Example 426, (R)-4-(1-(2-Fluoro-4-((1-methylpyrrolidin-2-yl)methoxy)phenyl)-2-methyl-1H-imidazol-4-yl)-N-(1-(methylsulfonyl)piperidin-4-yl)-5-(trifluoromethyl)pyrimidin-2-amine] reads at most 50 nM; that for `CS(=O)(=O)N1CCC(Nc2ncc(C(F)(F)F)c(-c3cn(-c4ccc(CN5CCCCC5)cc4C#N)cn3)n2)CC1` [Example 345, 2-(4-(2-((1-(Methylsulfonyl)piperidin-4-yl)amino)-5-(trifluoromethyl)pyrimidin-4-yl)-1H-imidazol-1-yl)-5-(piperidin-1-ylmethyl)benzonitrile], at most 50 nM.

Molecule `CN1CCN(Cc2ccc(-n3cnc(-c4nc(NC5CCN(S(C)(=O)=O)CC5)ncc4C(F)(F)F)c3)c(C#N)c2)CC1` [Example 344, 5-((4-Methylpiperazin-1-yl)methyl)-2-(4-(2-((1-(methylsulfonyl)piperidin-4-yl)amino)-5-(trifluoromethyl)pyrimidin-4-yl)-1H-imidazol-1-yl)benzonitrile] registered a half-maximal inhibitory concentration (IC50) of at most 50 nM.

In turn, `CN1CCN(c2ccc(-n3cnc(-c4nc(NC5CCN(S(C)(=O)=O)CC5)ncc4C(F)(F)F)c3)c(C#N)c2)CC1` [Example 430, 5-(4-Methylpiperazin-1-yl)-2-(4-(2-((1-(methylsulfonyl)piperidin-4-yl)amino)-5-(trifluoromethyl)pyrimidin-4-yl)-1H-imidazol-1-yl)benzonitrile] came in with an IC50 of at most 50 nM. The result for `CN(C)Cc1ccc(-n2cnc(-c3nc(NC4CCN(S(C)(=O)=O)CC4)ncc3C(F)(F)F)c2)c(Cl)c1` [Example 175, 4-(1-(2-Chloro-4-((dimethylamino)methyl)phenyl)-1H-imidazol-4-yl)-N-(1-(methylsulfonyl)piperidin-4-yl)-5-(trifluoromethyl)pyrimidin-2-amine] reads at most 50 nM. The figure for `CCS(=O)(=O)N1CCC(Nc2ncc(C(F)(F)F)c(-c3cn(-c4ccc(C)nc4C#N)cn3)n2)CC1` [Example 87, 3-(4-(2-((1-(Ethylsulfonyl)piperidin-4-yl)amino)-5-(trifluoromethyl)pyrimidin-4-yl)-1H-imidazol-1-yl)-6-methylpicolinonitrile] is at most 50 nM; for `CN(C)CCOc1ccc(-n2cnc(-c3nc(N[C@H]4CCN(S(C)(=O)=O)C[C@H]4F)ncc3C(F)(F)F)c2)c(C#N)n1` [Example 53, 6-(2-(Dimethylamino)ethoxy)-3-(4-(2-(((3R,4S)-3-fluoro-1-(methylsulfonyl)piperidin-4-yl)amino)-5-(trifluoromethyl)pyrimidin-4-yl)-1H-imidazol-1-yl)picolinonitrile] it is at most 50 nM. The result for `Cc1c(C#N)cccc1-n1cnc(-c2nc(N[C@H]3CCN(S(C)(=O)=O)C[C@H]3F)ncc2C(F)(F)F)c1` [Example 42, 3-(4-(2-(((3R,4S)-3-Fluoro-1-(methylsulfonyl)piperidin-4-yl)amino)-5-(trifluoromethyl)pyrimidin-4-yl)-1H-imidazol-1-yl)-2-methylbenzonitrile] reads at most 50 nM.

`CN(C)Cc1cccc(-n2cnc(-c3nc(NC4CCN(S(C)(=O)=O)CC4)ncc3C(F)(F)F)c2)c1Cl` [Example 77, 4-(1-(2-Chloro-3-((dimethylamino)methyl)phenyl)-1H-imidazol-4-yl)-N-(1-(methylsulfonyl)piperidin-4-yl)-5-(trifluoromethyl)pyrimidin-2-amine] registered an IC50 of at most 50 nM. On to `CNCc1ccc(-n2cc(-c3nc(NC4CCN(S(C)(=O)=O)CC4)ncc3C#N)nc2C)c(Cl)c1` [Example 289, 4-(1-(2-Chloro-4-((methylamino)methyl)phenyl)-2-methyl-1H-imidazol-4-yl)-2-((1-(methylsulfonyl)piperidin-4-yl)amino)pyrimidine-5-carbonitrile], for which the IC50 was at most 50 nM. The figure for `CS(=O)(=O)N1CCC(Nc2ncc(C(F)(F)F)c(-c3cn(-c4ccc(CNC5CC5)cc4Cl)cn3)n2)CC1` [Example 190, 4-(1-(2-Chloro-4-((cyclopropylamino)-methyl)phenyl)-1H-imidazol-4-yl)-N-(1-(methylsulfonyl)-piperidin-4-yl)-5-(trifluoromethyl)-pyrimidin-2-amine] is at most 50 nM; for `CS(=O)(=O)N1CCC(Nc2ncc(C(F)(F)F)c(-c3cn(-c4ccc(CN5CC(O)C5)cc4C(F)(F)F)cn3)n2)CC1` [Example 259, 1-(4-(4-(2-((1-(Methylsulfonyl)piperidin-4-yl)amino)-5-(trifluoromethyl)pyrimidin-4-yl)-1H-imidazol-1-yl)-3-(trifluoromethyl)benzyl) azetidin-3-ol] it is at most 50 nM; for `O=S(=O)(C1CC1)N1CCC(Nc2ncc(C(F)(F)F)c(-c3cn(-c4ccc(CN5CCC5)cc4Cl)cn3)n2)CC1` [Example 228, 4-(1-(4-(Azetidin-1-ylmethyl)-2-chlorophenyl)-1H-imidazol-4-yl)-N-(1-(cyclopropylsulfonyl)piperidin-4-yl)-5-(trifluoromethyl)pyrimidin-2-amine] it is at most 50 nM. The result for `CS(=O)(=O)N1CCC(Nc2ncc(C(F)(F)F)c(-c3cn(-c4cccnc4C#N)cn3)n2)CC1` [Example 34, 3-(4-(2-((1-(Methylsulfonyl)piperidin-4-yl)amino)-5-(trifluoromethyl)pyrimidin-4-yl)-1H-imidazol-1-yl)picolinonitrile] reads at most 50 nM; that for `Cn1cnc(-c2nc(NC3CCN(S(C)(=O)=O)CC3)ncc2C(F)(F)F)c1C#N` [Example 16, 1-Methyl-4-(2-((1-(methylsulfonyl)piperidin-4-yl)amino)-5-(trifluoromethyl)pyrimidin-4-yl)-1H-imidazole-5-carbonitrile], at most 50 nM; that for `CS(=O)(=O)N1CCC(Nc2ncc(C(F)(F)F)c(-c3cn(-c4ccc(CN5CCC5=O)cc4Cl)cn3)n2)CC1` [Example 452, 1-(3-Chloro-4-(4-(2-((1-(methylsulfonyl)piperidin-4-yl)amino)-5-(trifluoromethyl)pyrimidin-4-yl)-1H-imidazol-1-yl)benzyl)azetidin-2-one], at most 50 nM. The figure for `Cc1nc(-c2nc(NC3CCN(S(C)(=O)=O)CC3)ncc2C(F)(F)F)cn1-c1ccc(OC[C@@H]2CCCN2C)cc1F` [Example 425, (S)-4-(1-(2-Fluoro-4-((1-methylpyrrolidin-2-yl)methoxy)phenyl)-2-methyl-1H-imidazol-4-yl)-N-(1-(methylsulfonyl)piperidin-4-yl)-5-(trifluoromethyl)pyrimidin-2-amine] is at most 50 nM.
